Source: patent US20240091358A1, “[…] REGULATION” (Senti Biosciences, Inc., priority 2021, published 2024)

B1: Construct 1585: SFFV promoter-hIL-10-ADAM10/17 cleavage site-PDGFRb TM-A(EAAAK)3A-d913 degron; minTK-hIL-12 (opposite direction); SEQ ID NO: 187 (nucleic acid)
DNA: CCGATAAAATAAAAGATTTTATTTAGTCTCCAGAAAAAGGGGGGAATGAAAGACCCCACCTGTAGGTTTGGCAAGCTAGCTGCAGTAACGCCATTTTGCAAGGCATGGAAAAATACCAAACCAAGAATAGAGAAGTTCAGATCAAGGGCGGGTACATGAAAATAGCTAACGTTGGGCCAAACAGGATATCTGCGGTGAGCAGTTTCGGCCCCGGCCCGGGGCCAAGAACAGATGGTCACCGCAGTTTCGGCCCCGGCCCGAGGCCAAGAACAGATGGTCCCCAGATATGGCCCAACCCTCAGCAGTTTCTTAAGACCCATCAGATGTTTCCAGGCTCCCCCAAGGACCTGAAATGACCCTGCGCCTTATTTGAATTAACCAATCAGCCTGCTTCTCGCTTCTGTTCGCGCGCTTCTGCTTCCCGAGCTCTATAAAAGAGCTCACAACCCCTCACTCGGCGCGCCAGTCCTCCGACAGACTGAGTCGCCCGGGGGGGATCTGGAGCTCTCGAGAATTCATGCACTCATCTGCTCTCCTTTGCTGTCTCGTGCTCCTGACTGGAGTACGCGCGTCACCCGGTCAAGGGACACAAAGCGAAAACTCCTGTACGCATTTTCCGGGCAACCTCCCTAATATGCTTCGCGACTTGCGAGATGCATTTTCCAGGGTGAAGACCTTCTTCCAGATGAAGGACCAGTTGGATAATCTTCTCCTCAAGGAGTCTCTTTTGGAGGACTTCAAGGGCTACCTGGGATGTCAAGCCCTTAGCGAAATGATTCAGTTTTATCTTGAAGAGGTCATGCCGCAAGCTGAGAACCAGGACCCCGACATAAAAGCCCATGTGAACTCCCTCGGCGAGAATTTGAAGACGCTGAGACTTAGATTGAGAAGATGTCATAGATTTCTCCCATGTGAGAATAAGTCCAAGGCTGTCGAGCAGGTTAAGAATGCTTTCAATAAGTTGCAGGAAAAAGGAATCTATAAGGCAATGAGCGAGTTTGACATCTTTATTAACTACATTGAGGCTTATATGA
modifications: misc_feature 1..1034 Description of Artificial Sequence: Synthetic polynucleotide
B2: Construct 1584: SFFV promoter-hIL-10; minTK-hIL-12 (opposite direction); native hIL-10 without a degron; SEQ ID NO: 186 (nucleic acid)
DNA: CCGATAAAATAAAAGATTTTATTTAGTCTCCAGAAAAAGGGGGGAATGAAAGACCCCACCTGTAGGTTTGGCAAGCTAGCTGCAGTAACGCCATTTTGCAAGGCATGGAAAAATACCAAACCAAGAATAGAGAAGTTCAGATCAAGGGCGGGTACATGAAAATAGCTAACGTTGGGCCAAACAGGATATCTGCGGTGAGCAGTTTCGGCCCCGGCCCGGGGCCAAGAACAGATGGTCACCGCAGTTTCGGCCCCGGCCCGAGGCCAAGAACAGATGGTCCCCAGATATGGCCCAACCCTCAGCAGTTTCTTAAGACCCATCAGATGTTTCCAGGCTCCCCCAAGGACCTGAAATGACCCTGCGCCTTATTTGAATTAACCAATCAGCCTGCTTCTCGCTTCTGTTCGCGCGCTTCTGCTTCCCGAGCTCTATAAAAGAGCTCACAACCCCTCACTCGGCGCGCCAGTCCTCCGACAGACTGAGTCGCCCGGGGGGGATCTGGAGCTCTCGAGAATTCATGCACTCATCTGCTCTCCTTTGCTGTCTCGTGCTCCTGACTGGAGTACGCGCGTCACCCGGTCAAGGGACACAAAGCGAAAACTCCTGTACGCATTTTCCGGGCAACCTCCCTAATATGCTTCGCGACTTGCGAGATGCATTTTCCAGGGTGAAGACCTTCTTCCAGATGAAGGACCAGTTGGATAATCTTCTCCTCAAGGAGTCTCTTTTGGAGGACTTCAAGGGCTACCTGGGATGTCAAGCCCTTAGCGAAATGATTCAGTTTTATCTTGAAGAGGTCATGCCGCAAGCTGAGAACCAGGACCCCGACATAAAAGCCCATGTGAACTCCCTCGGCGAGAATTTGAAGACGCTGAGACTTAGATTGAGAAGATGTCATAGATTTCTCCCATGTGAGAATAAGTCCAAGGCTGTCGAGCAGGTTAAGAATGCTTTCAATAAGTTGCAGGAAAAAGGAATCTATAAGGCAATGAGCGAGTTTGACATCTTTATTAACTACATTGAGGCTTATATGACTATGAAAATTAGAAACTAA
modifications: misc_feature 1..1054 Description of Artificial Sequence: Synthetic polynucleotide

Key:
Format in all cases: cell-based
[1] = tested on: Hep3B cells; assay: Nanoluciferase activity (Promega Nanoglo) in Hep3B cells transduced with AAV2/AAV8 nanoluciferase-degron constructs, with or without IMiD (Example 5); details: for luciferase activity relative to cells not treated / minimal effective dose in vitro: Hep3B cells transduced with AAV2 construct; for luciferase activity relative to cells not treated: 1-0.01 μM drug, all concentrations tested; for minimal effective dose in vitro: concentration that may be approaching the minimal effective dose; for Fold change relative to no drug: decrease in nanoluciferase activity, Hep3B cells transduced with AAV2 nanoluciferase/degron construct
Experimental: AAV2 and AAV8 viral vector constructs were generated that expressed nanoluciferase as a chimeric protein fused to a C-terminal degron using an A(EAAK)3A linker (SEQ ID NO: 193). Constructs were generated using packaging vectors with either AAV2 or AAV8 capsid protein.
Luciferase activity was assessed following the general protocol below: • Day 0: Hep3b cells were plated at 50,000 cells per well in a 96 well plate • Day 1: 1e6 vg/cell AAV2 or 3e6 vg/cell AAV8 was added to cells in presence or absence of 1 μM Lenalidomide (or 1 μM-0.01 μM Lenalidomide or Pomalidomide) • Day 3: Cells were lysed and luciferase activity was measured with Promega Nanoglo kit

[2] = tested on: HEK293Ft cells; assay: SEAP QuantiBlue assay of SEAP/degron constructs in HEK293Ft cells (Example 1); details: 1 μM lenalidomide vs no drug
[3] = tested on: donor-derived T cells; assay: SEAP QuantiBlue assay of SEAP/degron constructs in donor-derived T cells (Example 1); details: 1 μM lenalidomide vs no drug
Experimental: A series of pL17d-based viral vector constructs were generated using Secreted Alkaline Phosphatase (SEAP) fused to a degron (d913 super degron) using various linkers, as described in Table 6A with sequences listed in Table 6B. The d913 super degron is described in more detail in International Application Pub. No. WO2019/089592A1, herein incorporated by reference for all purposes.
(§1) SEAP assays were performed using the QuantiBlue kit (Invivogen; rep-qb1). […] The CliniMACS Prodigy utilizes a closed-system, single-use disposable kits for many different cell types. The automated program performs platelet washes, CD4+& CD8+ bead labeling, and positive selection over a magnet resulting in cell suspensions with high purity. Positively selected T cells were then sampled, analyzed for cell surface phenotype via flow cytometry and cryopreserved via a controlled rate freezer. • Cells were then thawed and activated on Day 0 (1e6 cells/mL in a 24 well plate were activated 3:1 with CD3/CD28 Dynabeads) • On Day 1, 100K GS units of virus were added to cells • On Day 2, fresh media was added to T cells • On Day 4, each well was split into 2 wells of 6 well plate with +/−1 μM lenalidomide • On Day 7, cells were pelleted and 20 uL supernatant from each well was harvested and incubated with 180 uL QuantiBlue (Invivogen) for 1 h at 37 deg, SEAP activity was read out on a plate reader at 655 nm

[4] = tested on: HEK293Ft cells; assay: SEAP QuantiBlue assay of Membrane-Cleavable Degron constructs in HEK293Ft cells (Example 2); details: 1 μM lenalidomide vs no drug
[5] = tested on: donor-derived T cells; assay: SEAP QuantiBlue assay of Membrane-Cleavable Degron constructs in donor-derived T cells (Example 2); details: supernatant, 1 μM lenalidomide vs no drug
Experimental: A series of pL17d-based viral vector constructs were generated using Secreted Alkaline Phosphatase (SEAP) fused to a degron (d913 super degron) using various linkers, including transmembrane domain containing linkers, as described in Table 8A with sequences listed in Table 8B.
as §1, with “into 6” for “into 2”, “of 48” for “of 6”, “lenalidomide (3 wells with drug, 3 wells without)” for “lenalidomide”

[6] = tested on: Jurkat T cells; assay: SEAP QuantiBlue assay in Jurkat T cells (Example 3); details: supernatant, 1 μM lenalidomide vs no drug
Experimental: The viral vector constructs were generated, as described above, using Secreted Alkaline Phosphatase (SEAP) fused to a degron (d913 super degron) with various linkers, including transmembrane domain containing linkers. The constructs examined are described in Table 10.
SEAP assays were performed using the QuantiBlue kit (Invivogen; rep-qb1). For experiments performed in Jurkat cells, the following protocol was followed: • On Day 1, cells were plated at 1e6 cells in 1 mL in a 24 well plate and 300 k GS units of virus was added • On Day 3, cells were split into 6 wells of a 48 well plate (1e5 cells in 0.5 mL) and drug was added to 3 of these wells (1 μM lenalidomide) • On Day 6, cells were pelleted and 20 uL supernatant from each well was harvested and incubated with 180 uL QuantiBlue (Invivogen) for 1 h at 37 deg, SEAP activity was read out on a plate reader at 655 nm

[7] = tested on: donor-derived T cells; assay: hIL-10 secretion from donor T cells by Luminex assay, normalized to hIL-12 (Example 4); details: for % 1 uM Len of no drug (IL10/IL12 ratio) / Mean IL10/IL12 ratio (1 uM Len) / Mean IL10/IL12 ratio (no drug): donor T cell supernatant; for % 1 uM Len of no drug (IL10/IL12 ratio): 1 uM lenalidomide relative to no drug; for Mean IL10/IL12 ratio (1 uM Len): 1 uM lenalidomide; for Mean IL10/IL12 ratio (1 uM Len) / Mean IL10/IL12 ratio (no drug): hIL-10 normalized to hIL-12
Experimental: The viral vectors also expressed human IL-12 (hIL-12) from a separate promoter as a normalization control for cell number, viability, and transduction efficiency.
Cytokine secretion was assessed following the general protocol below: • Day 0: Donor T cells (enriched as previously described above) were thawed and activated with CD3/CD28 Dynabeads • Day 1: T cells were transduced with viral constructs (100 k GoStix values per 1e6 cells) • Day 2: Media was changed • Day 4: Cells were passaged • Day 7: Cells were spun down, washed 3× with media, then resuspended in media+/−1 μM Lenalidomide • Day 9: Supernatants were harvested and were evaluated for hIL10 and hIL12 concentration by Luminex assay

[8] = SEAP absorbance divided by cell count per well

Row | Molecule | luciferase activity relative to cells not treated [1] | minimal effective dose in vitro [1] [µM] | Fold change relative to no drug ([1]; drug dose 0.01 uM) [fold] | Fold change relative to no drug ([1]; drug dose 0.05 uM) [fold] | Fold change relative to no drug ([1]; drug dose 0.1 uM) [fold] | Fold change relative to no drug ([1]; drug dose 0.5 uM) [fold] | Fold change relative to no drug ([1]; drug dose 1 uM) [fold] | % 1 uM Len of no drug (IL10/IL12 ratio) [7] [%] | Mean IL10/IL12 ratio (1 uM Len) [7] | Mean IL10/IL12 ratio (no drug) [7] | further results
1 | Nc1cccc2c1CN(C1CCC(=O)NC1=O)C2=O (centres unmarked) [lenalidomide] | significant decreases in luciferase activity | ~0.01 | 6 | 18 | 25 | 35 | 60 |  |  |  | 
2 | Nc1cccc2c1C(=O)N(C1CCC(=O)NC1=O)C2=O (centres unmarked) [pomalidomide] | significant decreases in luciferase activity | ~0.01 | 4 | 12 | 19 | 18 | 19 |  |  |  | 
3 | Construct 419: pL17d viral vector construct expressing SEAP without a degron; SEQ ID NO: 179 [reference compound] |  |  |  |  |  |  |  |  |  |  | % SEAP OFF vs. ON (Len treated/untreated *100) Normalized to cell count [2, 8]: 133%; % SEAP OFF vs. ON (Len treated/untreated *100) ([2]; supernatant): 103%; % SEAP OFF vs. ON (Len treated/untreated *100) Normalized to cell count [3, 8]: 169%; % SEAP OFF vs. ON (Len treated/untreated *100) ([3]; supernatant): 127%; % SEAP OFF vs. ON (Len treated/untreated *100) Normalized to cell count [4, 8]: 104.3%; % SEAP OFF vs. ON (Len treated/untreated *100) ([4]; supernatant): 70%; % SEAP OFF vs. ON (Len treated/untreated *100) [5]: 129%; OFF % of ON (SEAP enzymatic activity) [6]: 105.3 (ns) %
4 | B1 |  |  |  |  |  |  |  | 56 | 1.65 | 2.97 | 
5 | B2 |  |  |  |  |  |  |  | 131 | 4.09 | 3.11 | hIL-10 secretion upon addition of lenalidomide ([7]; donor-derived T cells, 1 μM lenalidomide): did not result in reduced secretion
